Measurements reported in JP2022155436A, “メトホルミン塩の調製方法” (Guangzhou University, priority 2021, dated 2021).

Assay: Hygroscopicity (moisture uptake) test of metformin salts
Format: physicochemical
Details: 25°C, 10 days; for moisture-absorption weight increase: 75% RH (saturated NaCl) and 93% RH (saturated KNO3), sampled on day 5 and day 10; for hygroscopicity compared with metformin: 75% RH and 93% RH

Row | SMILES | moisture-absorption weight increase [%] | hygroscopicity compared with metformin
1 | CN(C)C(=N)NC(=N)N.O=C(O)Cc1cccc2ccccc12 [メトホルミンと1-ナフタレン酢酸塩] | < 5 | 吸湿性が顕著に低下した
2 | CN(C)C(=N)N=C(N)N.Oc1cccc2c(O)cccc12 [メトホルミンと1,5-ジヒドロキシナフタレン, メトホルミンと1,5-ジヒドロキシナフタレン塩] | < 5 | 吸湿性が顕著に低下した

Next, values leading:

Row | moisture-absorption weight increase [%] | hygroscopicity compared with metformin | SMILES
3 | < 5 | 吸湿性が顕著に低下した | CN(C)C(=N)N=C(N)N.O=C(O)c1cc2ccccc2cc1O [メトホルミンと2-ヒドロキシ-3-ナフトエ酸塩form1]
4 |  | 吸湿性が顕著に低下した | CN(C)C(=N)N=C(N)N.O=C(O)c1ccc2ccccc2c1O [メトホルミンと1-ヒドロキシ-2-ナフトエ酸塩]
5 | < 5 | 吸湿性が顕著に低下した | CN(C)C(=N)NC(=N)N.O=C(O)c1ccc2ccccc2c1 [メトホルミンと2-ナフトエ酸塩]
6 | < 5 | 吸湿性が顕著に低下した | CN(C)C(=N)NC(=N)N.O=C(O)c1cc2ccccc2cc1O [メトホルミンと2-ヒドロキシ-3-ナフトエ酸塩form2]
